Read-outs that look alike come from different tables or passages of the source.

Test [1] concerns the target T1, EGFR(L858R/T790M) (Homo sapiens, UniProt P00533, L858R/T790M).
T1 construct: purchased from Carna (GST-a.a. 669-1210)
In words: EGFR biochemical assay (HTRF), IC50 determinations. As to the method:
All EGFR biochemical assays were carried out by HTRF method. […] The substrate peptide Biotin-TK-peptide was purchased from Cis-Bio. […] All reactions were carried out at room temperature in white ProxiPlate™ 384-well Plus plates (PerkinElmer) and were quenched with 5 μL of 0.2 M EDTA at 60 min. Five L of the detection reagents (2.5 ng PT66K and 0.05 μg SAXL per well) were added, the plates were incubated at room temperature for 1 h and then read in EnVision reader. […] For no-preincubation condition, the compounds were added to the assay solution containing ATP and peptide, and the reaction was initiated by addition of enzyme. For pre-incubation conditions, the compounds were added to the assay solution containing enzyme and peptide, and pre-incubated at room temperature for desired period of time, then the reaction was initiated by addition of ATP.
Background: In TR-FRET formats the signal depends on donor and acceptor labels being close together.

Test [2] deals with human EGFR WT (NIH/3T3 cells, EGF-induced) (Homo sapiens, UniProt P00533). Kind of test: EGFR target modulation in engineered NIH/3T3 cell lines (phospho-EGFR Y1068 AlphaLISA), EGFR WT. The class given is cell-based. The conditions noted are these: engineered NIH/3T3 cells, read-out: NIH3T3 IC50 (μM) EGFR (WT). As to the method:
(§1) EGFR Target Modulation in Engineered NIH/3T3 Cell Lines Tissue Culture.
(§2) The cells were harvested with 0.05% Trypsin/EDTA (Hyclone #SH30236.01), re-suspended in 5% FBS/DMEM Pen/Strep without Puromycin and plated at 9,000 cells per well in 50 μl of media in a 384-well black plate with clear bottoms (Greiner #789068G). The cells were allowed to incubate overnight in a 37° C., 5% CO2 humidified tissue culture incubator. A 12-point test compound curve was prepared by serial diluting a 10 μM stock 1:3 in DMSO in a 384-well compound plate (Greiner #789201L). The serial diluted compounds were transferred to the plate containing cells by using a 50 nl Pin Head device (Perkin Elmer) and the cells were placed back in the incubator for 3 hours. Only the EGFR WT-expressing cells were induced with 50 ng/ml EGF (Preprotech #AF-100-15) for 5 minutes before lysis. […] The plates were shaken at 4° C. for 5 minutes with foil top at maximum speed. […] The plates were sealed with a foil top and frozen at −80° C. and thawed when needed.
(§3) The frozen aliquots were thawed and briefly centrifuged. All antibodies and beads were diluted in 1× AlphaLISA HiBlock Buffer (PE #AL004C). […] Goat anti-total EGFR (R&D Systems #AF231) was added and allowed to equilibrate for 1 hour at room temperature at 1 nM final concentration.
(§4) With these parameters, the IC50's for each compound in each cell line was calculated using non-linear curve fitting analysis.
(In general: In Alpha technology, singlet oxygen from a donor bead excites a nearby acceptor bead.)

Test [3] has as its target human EGFR L858R (NIH/3T3 cells) (Homo sapiens, UniProt P00533, L858R). In words: EGFR target modulation in engineered NIH/3T3 cell lines (phospho-EGFR Y1068 AlphaLISA), EGFR L858R. The test is classed as cell-based. The conditions noted are these: engineered NIH/3T3 cells, read-out: NIH3T3 IC50 (μM) EGFR (L858R). How it is done:
as §1, §2, §3, §4

Test [4] deals with human EGFR L858R/T790M (NIH/3T3 cells) (Homo sapiens, UniProt P00533, L858R/T790M). In words: EGFR target modulation in engineered NIH/3T3 cell lines (phospho-EGFR Y1068 AlphaLISA), EGFR L858R/T790M. The class given is cell-based. The following applies: engineered NIH/3T3 cells, read-out: NIH3T3 IC50 (μM) EGFR (L858R/T790M). How it is done:
as §1, §2, §3, §4

[5] abbreviates: EGFR (L858R/T790M) with 90 min pre-incubation, read-out: IC50 (μM) Column B.
[6] abbreviates: EGFR (L858R/T790M) with no pre-incubation, read-out: IC50 (μM) Column A.

Sequence of human EGFR L858R/T790M (NIH/3T3 cells) (P00533 25-1210 T790M/L858R): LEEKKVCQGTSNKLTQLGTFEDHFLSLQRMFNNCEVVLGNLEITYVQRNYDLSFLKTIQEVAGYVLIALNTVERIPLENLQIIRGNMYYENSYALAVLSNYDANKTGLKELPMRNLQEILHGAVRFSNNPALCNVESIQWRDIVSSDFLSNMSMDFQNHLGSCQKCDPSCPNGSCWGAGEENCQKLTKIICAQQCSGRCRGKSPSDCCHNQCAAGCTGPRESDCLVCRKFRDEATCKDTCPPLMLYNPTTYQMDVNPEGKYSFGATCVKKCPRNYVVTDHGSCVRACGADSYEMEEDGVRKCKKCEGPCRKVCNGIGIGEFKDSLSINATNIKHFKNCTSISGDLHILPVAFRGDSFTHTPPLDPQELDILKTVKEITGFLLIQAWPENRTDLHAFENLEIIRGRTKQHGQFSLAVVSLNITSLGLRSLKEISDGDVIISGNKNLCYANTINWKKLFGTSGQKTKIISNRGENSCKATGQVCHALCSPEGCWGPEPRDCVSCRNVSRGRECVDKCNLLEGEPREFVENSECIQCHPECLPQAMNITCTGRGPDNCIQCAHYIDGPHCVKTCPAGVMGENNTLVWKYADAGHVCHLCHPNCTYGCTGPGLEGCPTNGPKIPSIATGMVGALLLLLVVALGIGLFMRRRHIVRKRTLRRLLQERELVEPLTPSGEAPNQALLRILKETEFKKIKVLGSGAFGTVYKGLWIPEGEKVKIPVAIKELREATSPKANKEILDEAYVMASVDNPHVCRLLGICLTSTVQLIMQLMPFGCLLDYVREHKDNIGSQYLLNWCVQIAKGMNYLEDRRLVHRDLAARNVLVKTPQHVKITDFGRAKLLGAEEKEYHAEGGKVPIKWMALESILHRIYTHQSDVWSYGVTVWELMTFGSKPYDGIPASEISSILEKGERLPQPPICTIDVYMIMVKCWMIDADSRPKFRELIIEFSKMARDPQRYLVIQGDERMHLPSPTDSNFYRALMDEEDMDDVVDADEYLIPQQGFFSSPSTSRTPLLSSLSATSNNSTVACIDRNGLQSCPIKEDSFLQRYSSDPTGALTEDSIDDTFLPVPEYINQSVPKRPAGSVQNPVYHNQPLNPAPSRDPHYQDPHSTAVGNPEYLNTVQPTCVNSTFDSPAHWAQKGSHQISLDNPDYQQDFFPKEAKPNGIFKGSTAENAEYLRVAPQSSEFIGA
T1 sequence (P00533 669-1210 T790M/L858R): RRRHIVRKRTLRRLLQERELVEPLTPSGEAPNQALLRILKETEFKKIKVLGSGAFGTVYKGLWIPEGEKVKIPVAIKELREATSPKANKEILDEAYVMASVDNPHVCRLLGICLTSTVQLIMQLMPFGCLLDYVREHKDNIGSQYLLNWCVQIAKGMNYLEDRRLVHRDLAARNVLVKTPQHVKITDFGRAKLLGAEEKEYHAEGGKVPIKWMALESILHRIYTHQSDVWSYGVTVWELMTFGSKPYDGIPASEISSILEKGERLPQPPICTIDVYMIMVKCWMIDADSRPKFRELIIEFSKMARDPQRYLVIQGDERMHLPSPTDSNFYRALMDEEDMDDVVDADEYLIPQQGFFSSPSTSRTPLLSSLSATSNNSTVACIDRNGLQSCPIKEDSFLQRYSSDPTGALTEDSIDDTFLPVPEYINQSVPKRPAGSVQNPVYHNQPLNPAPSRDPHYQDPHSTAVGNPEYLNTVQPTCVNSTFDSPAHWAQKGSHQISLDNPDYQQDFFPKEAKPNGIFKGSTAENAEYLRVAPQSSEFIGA
Sequence of human EGFR L858R (NIH/3T3 cells) (P00533 25-1210 L858R): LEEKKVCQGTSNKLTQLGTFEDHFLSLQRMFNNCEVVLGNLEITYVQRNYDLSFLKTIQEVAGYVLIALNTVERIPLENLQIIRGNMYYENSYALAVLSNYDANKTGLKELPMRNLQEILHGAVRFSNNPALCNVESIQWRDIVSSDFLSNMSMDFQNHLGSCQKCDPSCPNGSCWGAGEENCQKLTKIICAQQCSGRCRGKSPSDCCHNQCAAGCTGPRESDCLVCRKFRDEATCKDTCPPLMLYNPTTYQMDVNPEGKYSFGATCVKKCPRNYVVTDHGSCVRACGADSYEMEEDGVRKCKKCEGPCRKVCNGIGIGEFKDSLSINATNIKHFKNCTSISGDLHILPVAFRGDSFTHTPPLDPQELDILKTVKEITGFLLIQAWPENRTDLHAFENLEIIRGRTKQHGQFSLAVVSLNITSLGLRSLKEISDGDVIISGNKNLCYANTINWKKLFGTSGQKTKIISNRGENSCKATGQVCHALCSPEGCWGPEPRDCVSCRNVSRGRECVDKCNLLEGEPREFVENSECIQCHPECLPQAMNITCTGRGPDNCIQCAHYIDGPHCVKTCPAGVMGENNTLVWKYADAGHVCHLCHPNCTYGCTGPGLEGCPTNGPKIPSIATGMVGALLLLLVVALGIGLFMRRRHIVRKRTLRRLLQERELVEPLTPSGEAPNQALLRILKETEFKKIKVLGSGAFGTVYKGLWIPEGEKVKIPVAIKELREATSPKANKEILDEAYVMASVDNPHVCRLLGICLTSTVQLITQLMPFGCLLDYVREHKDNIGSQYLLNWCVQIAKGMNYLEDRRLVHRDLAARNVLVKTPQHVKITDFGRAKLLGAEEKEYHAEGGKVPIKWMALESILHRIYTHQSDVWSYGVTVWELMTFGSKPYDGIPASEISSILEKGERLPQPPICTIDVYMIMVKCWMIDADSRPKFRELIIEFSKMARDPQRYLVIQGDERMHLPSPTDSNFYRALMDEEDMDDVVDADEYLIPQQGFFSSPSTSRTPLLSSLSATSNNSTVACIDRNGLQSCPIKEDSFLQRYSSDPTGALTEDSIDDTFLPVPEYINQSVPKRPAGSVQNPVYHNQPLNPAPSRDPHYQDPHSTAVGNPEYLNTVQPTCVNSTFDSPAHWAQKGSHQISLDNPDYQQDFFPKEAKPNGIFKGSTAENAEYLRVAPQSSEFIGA
Sequence of human EGFR WT (NIH/3T3 cells, EGF-induced) (P00533 25-1210): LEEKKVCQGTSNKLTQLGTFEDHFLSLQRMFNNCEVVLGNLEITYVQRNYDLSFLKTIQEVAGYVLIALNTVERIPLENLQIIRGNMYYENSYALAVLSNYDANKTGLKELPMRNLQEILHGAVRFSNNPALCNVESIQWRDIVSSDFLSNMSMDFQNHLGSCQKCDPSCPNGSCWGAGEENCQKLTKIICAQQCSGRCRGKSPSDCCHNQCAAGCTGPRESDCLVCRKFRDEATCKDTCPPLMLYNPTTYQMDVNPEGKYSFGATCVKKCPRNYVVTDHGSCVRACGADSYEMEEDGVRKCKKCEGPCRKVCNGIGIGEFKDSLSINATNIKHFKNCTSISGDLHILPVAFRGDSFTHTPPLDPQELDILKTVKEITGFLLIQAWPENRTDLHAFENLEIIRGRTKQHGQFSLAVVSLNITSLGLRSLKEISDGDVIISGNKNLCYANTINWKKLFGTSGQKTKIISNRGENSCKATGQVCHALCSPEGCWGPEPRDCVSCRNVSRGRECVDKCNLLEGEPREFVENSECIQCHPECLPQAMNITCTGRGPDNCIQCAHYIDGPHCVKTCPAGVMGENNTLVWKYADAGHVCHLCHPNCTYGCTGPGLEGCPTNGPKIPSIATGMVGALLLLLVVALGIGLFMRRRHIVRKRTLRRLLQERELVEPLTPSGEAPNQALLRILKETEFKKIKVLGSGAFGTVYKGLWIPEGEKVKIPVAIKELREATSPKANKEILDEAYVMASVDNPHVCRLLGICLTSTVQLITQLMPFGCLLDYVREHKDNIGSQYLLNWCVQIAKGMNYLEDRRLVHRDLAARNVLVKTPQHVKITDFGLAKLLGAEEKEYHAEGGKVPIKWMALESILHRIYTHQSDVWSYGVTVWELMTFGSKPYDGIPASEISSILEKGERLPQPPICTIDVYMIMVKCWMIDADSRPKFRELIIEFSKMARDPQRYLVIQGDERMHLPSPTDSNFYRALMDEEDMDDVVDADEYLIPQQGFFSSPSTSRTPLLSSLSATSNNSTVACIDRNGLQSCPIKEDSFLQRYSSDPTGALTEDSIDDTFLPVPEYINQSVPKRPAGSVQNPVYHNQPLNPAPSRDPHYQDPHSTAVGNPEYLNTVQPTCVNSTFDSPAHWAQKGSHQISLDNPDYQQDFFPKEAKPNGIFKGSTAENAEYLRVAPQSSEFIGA

For `Cc1cccc2nc(NC(=O)c3cccc(Cl)c3)n(C3CCCCN(C(=O)/C=C/CN(C)C)C3)c12` (stereo not drawn) [Example 17-43], the IC50 was less than 0.001 µM in test [1] (setting [5]); 0.006 µM in test [1] (setting [6]); 0.48 µM in test [2]; 0.014 µM in test [3]; 0.004 µM in test [4].
Taken in the same sequence, the figures for `C=C(CN(CC)CC)C(=O)N1CCCC[C@@H](n2c(NC(=O)c3ccnnc3)nc3cccc(C)c32)C1` [Example 17-92] were 0.012 µM, 0.213 µM, 1.83 µM, 0.043 µM and 0.057 µM.
For `C=CS(=O)(=O)N1CCCCC(n2c(NC(=O)c3cccc(C(F)(F)F)c3)nc3cccc(C)c32)C1` (stereo not drawn) [Example 10, N-(7-methyl-1-(1-(vinylsulfonyl)azepan-3-yl)-1H-benzo[d]imidazol-2-yl)-3-(trifluoromethyl)benzamide], the IC50 in test [1] (setting [5]) was 0.009 µM; in test [1] (setting [6]), 0.39 µM; in test [2], more than 10 µM; in test [3] it was 0.34 µM; in test [4], 0.037 µM.
As to `Cc1cccc2nc(NC(=O)c3ccnc(C(F)(F)F)c3)n([C@H]3CCCCN(C(=O)/C=C/CN(C)C)C3)c12` (single isomer, unassigned) [Example 21-1], the IC50 in test [1] (setting [5]) is 0.012 µM; in test [1] (setting [6]) it was 0.171 µM; in test [2], more than 10 µM; in test [3], 2.23 µM; in test [4], 0.12 µM.
On the same counts, the results for `C=CC(=O)N1CCCC[C@@H](n2c(NC(=O)c3ccccc3)nc3cc(CN(C)CCS(C)(=O)=O)cc(C)c32)C1` [Example 17-127] are less than 0.001 µM, 0.002 µM, 0.099 µM, 0.004 µM and 0.001 µM.
On to `C=CC(=O)N1CCCCC(n2c(NC(=O)c3ccccc3)nc3cccc(C)c32)C1` (stereo not drawn) [Example 17-11], for which the IC50 in test [1] (setting [5]) is less than 0.001 µM; in test [1] (setting [6]), less than 0.001 µM; in test [2], 1.54 µM; in test [3] it was 0.015 µM; in test [4], 0.002 µM.
On to `Cc1cccc2nc(NC(=O)c3ccccn3)n(C3CCCCN(C(=O)/C=C/CN(C)C)C3)c12` (stereo not drawn) [Example 17-34], for which the IC50 is 0.038 µM in test [1] (setting [5]); 1.05 µM in test [1] (setting [6]); more than 10 µM in test [2]; 0.53 µM in test [3]; 0.221 µM in test [4].
Taken in the same sequence, the figures for `COC1CN(C/C=C/C(=O)N2CCCC[C@@H](n3c(NC(=O)c4ccnc(C)c4)nc4cccc(Cl)c43)C2)C1` [Example 3-14] were less than 0.001 µM, 0.012 µM, 0.78 µM, 0.011 µM and 0.012 µM.
Taken in the same sequence, the figures for `C=CC(=O)N1CCC[C@@H](n2c(NC(=O)c3cccc(C(F)(F)F)c3)nc3cc(CN4C[C@@H](O)[C@H](O)C4)ccc32)C1` [Example 17-120] were 0.028 µM, 0.69 µM, more than 10 µM, 8.2 µM and 0.86 µM.
Take `COc1cccc(C(=O)Nc2nc3cccc(C)c3n2C2CCCCN(C(=O)/C=C/CN(C)C)C2)c1` (stereo not drawn) [Example 17-44]: the IC50 is less than 0.001 µM in test [1] (setting [5]); 0.007 µM in test [1] (setting [6]); 0.39 µM in test [2]; 0.015 µM in test [3]; 0.003 µM in test [4].
Regarding `Cc1cccc2nc(NC(=O)c3cnco3)n(C3CCCCN(C(=O)/C=C/CN(C)C)C3)c12` (stereo not drawn) [Example 17-5], the IC50 in test [1] (setting [5]) worked out at 0.001 µM; in test [1] (setting [6]), 0.022 µM; in test [2], 0.172 µM; in test [3], 0.008 µM; in test [4] it was 0.011 µM.
Consider `Cc1cccc2nc(NC(=O)c3ccnc(N4CCCCC4)c3)n(C3CCCCN(C(=O)/C=C/CN(C)C)C3)c12` (stereo not drawn) [Example 17-57], for which the IC50 in test [1] (setting [5]) is less than 0.001 µM; in test [1] (setting [6]) it was less than 0.001 µM; in test [2], 0.02 µM; in test [3], less than 0.001 µM; in test [4], 0.002 µM.
With `C=CC(=O)N1CCCCC(n2c(NC(=O)c3cccc(C(F)(F)F)c3)nc3cccc(C)c32)C1` (stereo not drawn) [Example 17-10], the IC50 in test [1] (setting [5]) is less than 0.001 µM; in test [1] (setting [6]), 0.014 µM; in test [2] it was 1.65 µM; in test [3] it was 0.007 µM; in test [4], 0.003 µM.
Taken in the same sequence, the figures for `CN(C)C/C=C/C(=O)N1CCC[C@@H](n2c(NC(=O)c3cccc(C(F)(F)F)c3)nc3cc(CO)ccc32)C1` [Example 17-143] were 0.014 µM, 0.233 µM, more than 10 µM, 0.313 µM and 0.046 µM.
On the same counts, the results for `Cc1cc(C(=O)Nc2nc3cccc(C)c3n2C2CCCCN(C(=O)/C=C/CN(C)C)C2)oc1C` (stereo not drawn) [Example 17-59] are 0.006 µM, 0.105 µM, 0.37 µM, 0.02 µM and 0.019 µM.
Regarding `C=CC(=O)N1CCCCC(n2c(NC(=O)c3ccccc3)nc3cccc(C(=O)NCC(=O)O)c32)C1` (stereo not drawn) [Example 17-137], the IC50 in test [1] (setting [5]) is 0.044 µM; in test [1] (setting [6]) it was 1.55 µM; in test [2] it was more than 10 µM; in test [3], more than 10 µM; in test [4] it was 7.9 µM.
Regarding `Cc1ncc(C(=O)Nc2nc3cccc(C)c3n2C2CCCCN(C(=O)/C=C/CN(C)C)C2)s1` (stereo not drawn) [Example 17-64], the IC50 worked out at 0.001 µM in test [1] (setting [5]); 0.02 µM in test [1] (setting [6]); 0.021 µM in test [2]; 0.002 µM in test [3]; 0.005 µM in test [4].
On the same counts, the results for `C=CC(=O)N1CCCC(n2c(NC(=O)c3cccc(C(F)(F)F)c3)nc3cnccc32)C1` (stereo not drawn) [Example 17-8] are 0.137 µM, 7 µM, more than 10 µM, 5.5 µM and 0.37 µM.
On the same counts, the results for `CCOc1cc(C(=O)Nc2nc3cccc(C)c3n2C2CCCCN(C(=O)/C=C/CN(C)C)C2)ccn1` (stereo not drawn) [Example 17-65] are less than 0.001 µM, 0.004 µM, 0.012 µM, 0.002 µM and 0.002 µM.
Taken in the same sequence, the figures for `Cc1cccc2nc(NC(=O)c3ccnc(OC(F)(F)F)c3)n([C@@H]3CCCCN(C(=O)/C=C/CN(C)C)C3)c12` [Example 17-102] were less than 0.001 µM, 0.002 µM, 0.047 µM, 0.001 µM and 0.002 µM.
As for `Cc1cccc2nc(NC(=O)c3cc(F)cc(F)c3)n(C3CCCCN(C(=O)/C=C/CN(C)C)C3)c12` (stereo not drawn) [Example 17-22], the IC50 is less than 0.001 µM in test [1] (setting [5]); 0.003 µM in test [1] (setting [6]); 0.271 µM in test [2]; 0.004 µM in test [3]; 0.002 µM in test [4].
On the same counts, the results for `C=CC(=O)N1CCCC[C@@H](n2c(NC(=O)c3ccccc3)nc3cccc(COCCOC)c32)C1` [Example 17-130] are 0.006 µM, 0.119 µM, 1.41 µM, 0.094 µM and 0.016 µM.
Taken in the same sequence, the figures for `C=CC(=O)N1CCCCC(n2c(NC(=O)c3ccccc3)nc3cccc(C(=O)NCCC(=O)OC)c32)C1` (stereo not drawn) [Example 17-134] were 0.01 µM, 0.93 µM, more than 10 µM, 0.63 µM and 0.073 µM.
Consider `C=CC(=O)N1CCC[C@@H](n2c(NC(=O)c3cccc(C(F)(F)F)c3)nc3cc(C(=O)OC)ccc32)C1` [Example 17-110], for which the IC50 was 0.119 µM in test [1] (setting [5]); 10.8 µM in test [1] (setting [6]); more than 10 µM in test [2]; 4.7 µM in test [3]; 0.46 µM in test [4].
